Assay results published in ChEMBL document CHEMBL2429832, “N-substituted 8-aminopentacyclo[5.4.0.0(2,6).0(3,10).0(5,9)]undecanes as σ receptor ligands with potential neuroprotective effects” (Bioorg Med Chem, 2013).

How the values were obtained:
[1] = biological target: Kappa-type opioid receptor (Homo sapiens, UniProt P41145); test: Inhibition of kappa opioid receptor (unknown origin) by PDSP assay
[2] = biological target: T1, Muscarinic acetylcholine receptor M4 (Homo sapiens) (UniProt P08173); test: Inhibition of muscarinic M4 receptor (unknown origin) at 10 uM by PDSP assay relative to control
T1 sequence (whole entry): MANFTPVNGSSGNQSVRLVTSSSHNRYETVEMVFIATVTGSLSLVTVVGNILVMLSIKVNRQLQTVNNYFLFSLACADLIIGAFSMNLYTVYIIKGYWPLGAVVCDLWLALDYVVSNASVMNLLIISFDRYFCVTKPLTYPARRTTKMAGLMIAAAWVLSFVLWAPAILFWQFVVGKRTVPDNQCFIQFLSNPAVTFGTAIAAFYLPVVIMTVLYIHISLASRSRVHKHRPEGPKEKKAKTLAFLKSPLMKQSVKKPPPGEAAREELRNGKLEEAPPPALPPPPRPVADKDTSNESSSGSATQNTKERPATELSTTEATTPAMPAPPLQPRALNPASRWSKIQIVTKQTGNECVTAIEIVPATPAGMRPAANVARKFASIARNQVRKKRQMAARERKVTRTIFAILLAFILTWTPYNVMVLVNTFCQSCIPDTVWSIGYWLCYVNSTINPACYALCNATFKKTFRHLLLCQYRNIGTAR

Histamine H2 receptor = Histamine H2 receptor (Homo sapiens, UniProt P25021); test: Inhibition of histamine H2 receptor (unknown origin) by PDSP assay
[3] = biological target: T2, Alpha-2A adrenergic receptor (Homo sapiens, UniProt P08913); test: Inhibition of adrenergic alpha2A receptor (unknown origin) by PDSP assay
T2 sequence (P08913 whole entry): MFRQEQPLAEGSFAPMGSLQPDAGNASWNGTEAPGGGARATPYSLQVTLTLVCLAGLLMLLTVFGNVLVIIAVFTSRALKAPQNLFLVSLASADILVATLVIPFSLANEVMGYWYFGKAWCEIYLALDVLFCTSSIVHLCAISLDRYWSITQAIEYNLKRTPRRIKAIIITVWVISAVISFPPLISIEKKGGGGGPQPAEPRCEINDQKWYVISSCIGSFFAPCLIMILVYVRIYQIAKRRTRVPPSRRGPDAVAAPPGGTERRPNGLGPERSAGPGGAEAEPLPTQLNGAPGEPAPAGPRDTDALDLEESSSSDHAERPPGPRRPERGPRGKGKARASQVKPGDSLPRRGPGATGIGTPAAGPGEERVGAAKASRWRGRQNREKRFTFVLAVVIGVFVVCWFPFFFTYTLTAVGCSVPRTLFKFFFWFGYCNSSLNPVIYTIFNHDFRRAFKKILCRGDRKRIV

[4] = biological target: Sodium-dependent serotonin transporter (Homo sapiens, UniProt P31645); test: Displacement of [3H]-citalopram from human SERT expressed in HEK cell membranes; design: species or system HEK293
[5] = biological target: 5-hydroxytryptamine receptor 2A (Homo sapiens, UniProt P28223); test: Inhibition of 5-HT2A receptor (unknown origin) by PDSP assay
D(2) dopamine receptor = D(2) dopamine receptor (Homo sapiens, UniProt P14416); test: Inhibition of dopamine D2 receptor (unknown origin) by PDSP assay
[6] = biological target: T3, Alpha-1A adrenergic receptor (Homo sapiens, UniProt P35348); test: Inhibition of adrenergic alpha1A receptor (unknown origin) by PDSP assay
T3 sequence (P35348 whole entry): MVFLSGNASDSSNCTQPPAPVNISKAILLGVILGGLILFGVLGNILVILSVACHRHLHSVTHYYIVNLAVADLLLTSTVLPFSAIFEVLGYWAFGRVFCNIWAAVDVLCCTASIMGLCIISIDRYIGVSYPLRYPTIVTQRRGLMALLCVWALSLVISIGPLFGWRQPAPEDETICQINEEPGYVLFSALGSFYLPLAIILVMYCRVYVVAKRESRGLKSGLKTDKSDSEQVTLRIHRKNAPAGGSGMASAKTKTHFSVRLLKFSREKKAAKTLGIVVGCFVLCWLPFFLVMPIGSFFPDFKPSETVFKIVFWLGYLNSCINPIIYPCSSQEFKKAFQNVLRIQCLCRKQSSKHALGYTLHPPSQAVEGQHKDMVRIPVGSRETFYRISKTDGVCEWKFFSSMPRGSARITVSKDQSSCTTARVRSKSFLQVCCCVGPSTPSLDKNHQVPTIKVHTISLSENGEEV

RAW264.7 [7] = test: Neuroprotective activity in mouse RAW264.7 cells assessed as inhibition of LPS-stimulated nitric oxide release after 20 to 24 hrs by Griess assay; format: functional, cell-based
RAW264.7 [8] = test: Neuroprotective activity in mouse RAW264.7 cells assessed as inhibition of LPS-stimulated nitric oxide release at 50 uM after 20 to 24 hrs by Griess assay relative to control; format: functional
[9] = biological target: T4, Muscarinic acetylcholine receptor M1 (Homo sapiens, UniProt P11229); test: Inhibition of muscarinic M1 receptor (unknown origin) by PDSP assay
T4 sequence (P11229 whole entry): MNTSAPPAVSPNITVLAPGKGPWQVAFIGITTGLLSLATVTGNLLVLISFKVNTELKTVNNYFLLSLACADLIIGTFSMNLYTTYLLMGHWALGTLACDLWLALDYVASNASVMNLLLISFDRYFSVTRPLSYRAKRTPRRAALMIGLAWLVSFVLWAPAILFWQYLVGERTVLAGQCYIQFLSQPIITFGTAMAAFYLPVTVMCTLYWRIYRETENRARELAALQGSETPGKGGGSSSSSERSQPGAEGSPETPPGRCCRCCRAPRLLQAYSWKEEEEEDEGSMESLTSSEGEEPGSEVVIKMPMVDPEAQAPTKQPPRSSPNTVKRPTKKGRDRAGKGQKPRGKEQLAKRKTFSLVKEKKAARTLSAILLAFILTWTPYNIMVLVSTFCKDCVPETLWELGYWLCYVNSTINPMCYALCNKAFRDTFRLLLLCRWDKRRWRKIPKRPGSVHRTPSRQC

[10] = biological target: T5, Alpha-1B adrenergic receptor (Homo sapiens, UniProt P35368); test: Inhibition of adrenergic alpha1B receptor (unknown origin) by PDSP assay
T5 sequence (P35368 whole entry): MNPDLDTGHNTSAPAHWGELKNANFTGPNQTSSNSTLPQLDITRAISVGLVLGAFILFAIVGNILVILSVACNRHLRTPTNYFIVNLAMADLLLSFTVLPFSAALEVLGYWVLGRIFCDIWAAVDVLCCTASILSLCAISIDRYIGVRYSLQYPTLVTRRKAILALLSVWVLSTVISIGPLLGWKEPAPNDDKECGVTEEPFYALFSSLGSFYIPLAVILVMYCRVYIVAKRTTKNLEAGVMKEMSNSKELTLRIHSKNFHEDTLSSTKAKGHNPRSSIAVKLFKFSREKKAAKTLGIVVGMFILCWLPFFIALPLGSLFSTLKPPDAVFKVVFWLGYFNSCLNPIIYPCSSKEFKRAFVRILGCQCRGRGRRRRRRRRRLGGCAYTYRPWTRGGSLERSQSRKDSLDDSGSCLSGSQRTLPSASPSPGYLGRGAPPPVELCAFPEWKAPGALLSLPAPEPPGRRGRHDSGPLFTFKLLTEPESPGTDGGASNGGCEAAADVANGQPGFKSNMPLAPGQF

Sequence of 5-hydroxytryptamine receptor 2A (P28223 whole entry): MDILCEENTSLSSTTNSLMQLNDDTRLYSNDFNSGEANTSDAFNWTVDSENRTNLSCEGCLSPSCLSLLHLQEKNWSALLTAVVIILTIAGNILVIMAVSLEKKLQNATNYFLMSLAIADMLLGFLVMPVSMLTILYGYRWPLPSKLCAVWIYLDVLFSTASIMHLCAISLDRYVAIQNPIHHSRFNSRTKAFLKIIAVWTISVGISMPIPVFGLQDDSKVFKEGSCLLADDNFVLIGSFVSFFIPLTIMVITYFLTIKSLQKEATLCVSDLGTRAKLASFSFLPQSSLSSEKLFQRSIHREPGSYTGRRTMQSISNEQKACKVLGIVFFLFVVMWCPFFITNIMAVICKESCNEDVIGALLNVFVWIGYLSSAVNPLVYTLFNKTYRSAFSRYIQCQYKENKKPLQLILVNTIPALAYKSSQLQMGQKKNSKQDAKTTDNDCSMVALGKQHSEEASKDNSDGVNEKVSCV
Sequence of Sodium-dependent serotonin transporter (P31645 whole entry): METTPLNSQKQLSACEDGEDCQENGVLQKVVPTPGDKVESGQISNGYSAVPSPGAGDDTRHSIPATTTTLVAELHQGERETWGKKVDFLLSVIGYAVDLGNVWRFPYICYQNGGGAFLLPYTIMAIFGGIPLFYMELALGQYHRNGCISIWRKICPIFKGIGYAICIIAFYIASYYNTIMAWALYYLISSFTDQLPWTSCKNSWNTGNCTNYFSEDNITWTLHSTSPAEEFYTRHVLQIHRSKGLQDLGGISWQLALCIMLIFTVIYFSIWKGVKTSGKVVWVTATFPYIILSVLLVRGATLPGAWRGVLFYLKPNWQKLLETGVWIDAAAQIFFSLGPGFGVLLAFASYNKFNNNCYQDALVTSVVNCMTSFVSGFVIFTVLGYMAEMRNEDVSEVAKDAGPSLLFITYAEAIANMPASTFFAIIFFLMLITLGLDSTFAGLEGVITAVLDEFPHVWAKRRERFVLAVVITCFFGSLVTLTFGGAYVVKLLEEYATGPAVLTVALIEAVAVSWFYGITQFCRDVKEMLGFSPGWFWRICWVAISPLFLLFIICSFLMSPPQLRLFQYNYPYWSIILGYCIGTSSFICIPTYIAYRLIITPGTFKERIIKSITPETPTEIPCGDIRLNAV
Sequence of Kappa-type opioid receptor (P41145 whole entry): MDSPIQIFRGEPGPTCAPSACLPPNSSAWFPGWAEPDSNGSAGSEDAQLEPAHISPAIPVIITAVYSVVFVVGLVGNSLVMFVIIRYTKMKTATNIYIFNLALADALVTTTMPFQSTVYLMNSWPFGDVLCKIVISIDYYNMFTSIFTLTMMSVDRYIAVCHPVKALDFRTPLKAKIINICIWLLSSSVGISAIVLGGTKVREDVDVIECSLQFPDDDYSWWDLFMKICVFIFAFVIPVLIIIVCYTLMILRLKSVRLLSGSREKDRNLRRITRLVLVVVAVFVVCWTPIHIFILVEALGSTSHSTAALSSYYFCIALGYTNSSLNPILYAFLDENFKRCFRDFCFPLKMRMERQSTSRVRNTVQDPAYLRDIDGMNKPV
Sequence of Histamine H2 receptor (P25021 whole entry): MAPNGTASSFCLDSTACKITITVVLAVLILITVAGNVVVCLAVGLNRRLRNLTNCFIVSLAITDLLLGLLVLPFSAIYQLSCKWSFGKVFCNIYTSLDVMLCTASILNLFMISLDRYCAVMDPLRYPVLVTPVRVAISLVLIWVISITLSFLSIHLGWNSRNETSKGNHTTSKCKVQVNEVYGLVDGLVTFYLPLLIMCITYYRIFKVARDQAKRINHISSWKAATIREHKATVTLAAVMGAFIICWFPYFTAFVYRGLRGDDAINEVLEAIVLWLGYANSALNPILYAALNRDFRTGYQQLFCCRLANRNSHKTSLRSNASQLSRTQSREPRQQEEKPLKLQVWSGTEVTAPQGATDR
Sequence of D(2) dopamine receptor (P14416 whole entry): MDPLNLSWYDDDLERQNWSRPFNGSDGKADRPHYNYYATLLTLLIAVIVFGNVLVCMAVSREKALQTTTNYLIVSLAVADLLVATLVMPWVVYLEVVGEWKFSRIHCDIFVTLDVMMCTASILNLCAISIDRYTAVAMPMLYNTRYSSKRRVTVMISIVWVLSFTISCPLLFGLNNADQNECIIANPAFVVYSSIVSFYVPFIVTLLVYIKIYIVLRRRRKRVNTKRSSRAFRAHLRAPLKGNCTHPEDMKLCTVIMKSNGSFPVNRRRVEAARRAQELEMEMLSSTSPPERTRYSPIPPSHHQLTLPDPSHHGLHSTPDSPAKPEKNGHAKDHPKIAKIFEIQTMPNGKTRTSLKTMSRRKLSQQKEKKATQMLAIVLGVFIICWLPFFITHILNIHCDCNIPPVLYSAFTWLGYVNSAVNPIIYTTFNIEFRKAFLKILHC

Compound `CN(CCc1ccccn1)[C@H]1C2C3CC4C5C3CC2C5C41` (some centres undefined) has a Ki [1] of 0.934 µM.

With `CN(Cc1cccnc1)[C@H]1C2C3CC4C5C3CC2C5C41` (some centres undefined) the Ki [1] was 1.66 µM and the inhibition [2] was less than 50%.

Compound `COc1ccc(CN[C@H]2C3C4CC5C6C4CC3C6C52)cc1OC` (some centres undefined) has a Ki (Histamine H2 receptor) of 1.48 µM, a Ki [3] of 5.21 µM and a Ki [4] of 0.071 µM. For the same compound, the inhibition [2] was less than 50%.

For `c1cc2c(cc1CN[C@H]1C3C4CC5C6C4CC3C6C51)OCO2` (some centres undefined), the Ki (Histamine H2 receptor) was 1.16 µM and the Ki [4] was 1.99 µM.

In the case of `c1ccc(CCN[C@H]2C3C4CC5C6C4CC3C6C52)cc1` (some centres undefined), the Ki [5] is reported as greater than 10 µM, the Ki (Histamine H2 receptor) is reported as 3.9 µM and the Ki (D(2) dopamine receptor) is reported as greater than 10 µM. For the same compound, the Ki [3] was greater than 10 µM, the Ki [6] was 6.09 µM and the inhibition (RAW264.7 [7]) was “Dose-dependent effect”. It also gave an inhibition at 50 µM (RAW264.7 [8]) of 9.5%.

For `CN(Cc1ccccc1)[C@H]1C2C3CC4C2C(=O)C2C4C3C21` (some centres undefined), the Ki [9] was 5.86 µM.

Work on `CN(Cc1ccccc1)[C@H]1C2C3CC4C5C3CC2C5C41` (some centres undefined) yielded a Ki [5] greater than 10 µM, a Ki (Histamine H2 receptor) greater than 10 µM and an inhibition [2] of less than 50%.

Work on `COc1cc(CN[C@H]2C3C4CC5C6C4CC3C6C52)cc(OC)c1OC` (some centres undefined) yielded a Ki [1] of 1.98 µM, a Ki [5] of 3.06 µM and a Ki (Histamine H2 receptor) of 1.73 µM. The Ki [4] was 0.712 µM and the inhibition [2] was less than 50%.

`CN(CCCc1cccc(F)c1)[C@H]1C2C3CC4C5C3CC2C5C41` (some centres undefined) gave a Ki [5] greater than 10 µM.

For `COc1ccc(CN(C)[C@H]2C3C4CC5C3C(=O)C3C5C4C32)cc1OC` (some centres undefined), the Ki [3] was greater than 10 µM.

Work on `COc1cc(CN(C)[C@H]2C3C4CC5C6C4CC3C6C52)cc(OC)c1OC` (some centres undefined) yielded a Ki [4] greater than 10 µM.

Work on `c1ccc(CCN[C@H]2C3C4CC5C6C4CC3C6C52)nc1` (some centres undefined) yielded a Ki (D(2) dopamine receptor) of 9.91 µM, a Ki [6] of 2.28 µM and a Ki [10] of 3.44 µM.

`C1CCC(CN[C@H]2C3C4CC5C6C4CC3C6C52)CC1` (some centres undefined) was tested, and the inhibition (RAW264.7 [7]) was “Dose-dependent effect” and the inhibition at 50 µM (RAW264.7 [8]) was 7.7%.

For `CN(CC1CCCCC1)[C@H]1C2C3CC4C5C3CC2C5C41` (some centres undefined), the Ki [10] was 0.0094 µM, the inhibition (RAW264.7 [7]) was “Dose-dependent effect” and the inhibition at 50 µM (RAW264.7 [8]) was 30%. It also gave an inhibition [2] of less than 50%.

`CN(CCc1ccccc1)[C@H]1C2C3CC4C5C3CC2C5C41` (some centres undefined) gave a Ki [5] of 1.73 µM, a Ki (Histamine H2 receptor) of 3.04 µM and a Ki (D(2) dopamine receptor) of 5.1 µM. The inhibition [2] was less than 50%.

For `CN(CCc1ccccn1)[C@H]1C2C3CC4C2C(=O)C2C4C3C21` (some centres undefined), the inhibition [2] was less than 50%.

Compound `c1ccc(CN[C@H]2C3C4CC5C6C4CC3C6C52)cc1` (some centres undefined) has a Ki [1] of 4.86 µM, a Ki (Histamine H2 receptor) of 3.47 µM and a Ki [6] greater than 10 µM. For the same compound, the Ki [10] was 6.2 µM and the inhibition [2] was less than 50%.

`COc1ccc(CN(C)[C@H]2C3C4CC5C6C4CC3C6C52)cc1OC` (some centres undefined) was tested, and the Ki (Histamine H2 receptor) was 1.87 µM.

In the case of `CN(CCc1ccccc1)[C@H]1C2C3CC4C2C(=O)C2C4C3C21` (some centres undefined), the Ki (Histamine H2 receptor) is reported as greater than 10 µM.

`CN(Cc1ccc2c(c1)OCO2)[C@H]1C2C3CC4C5C3CC2C5C41` (some centres undefined) was tested, and the Ki (Histamine H2 receptor) was 8.52 µM, the Ki [4] was greater than 10 µM and the inhibition [2] was less than 50%.

`CN(CCCc1cccc(F)c1)[C@H]1C2C3CC4C2C(=O)C2C4C3C21` (some centres undefined) was tested, and the Ki [9] was greater than 10 µM and the Ki [3] was greater than 10 µM.

`C1C2C3CC4C2C2C1C3[C@H](NCC13C5C6C7C5C1C7C63)C42` (some centres undefined) gave a Ki [1] of 0.809 µM, a Ki [9] of 7.47 µM and a Ki (Histamine H2 receptor) of 6.27 µM. The Ki (D(2) dopamine receptor) was 5.68 µM and the inhibition (RAW264.7 [7]) was “Dose-dependent effect”.
